≈ marks a conversion by molar mass, not a printed value. Residues, ends and D or L forms follow the SMILES beside them.
How the values were obtained:
E. coli ATCC 25922 = assay: Membrane integrity, PI uptake; format: cell-based, Escherichia coli; conditions: E. coli ATCC 25922, 5 µg ml−1 PI, 1 h
Procedure: (§1) Propidium iodide (PI) uptake was used to assess the permeabilization of the bacterial membrane upon incubation with peptides. E. coli and S. aureus cells, adjusted to an OD600 of 0.5, were placed into a 96-well plate containing 5 mM HEPES buffer (pH 7.4, supplemented with 5 mM glucose) and incubated with 5 µg ml^−1 PI for 15 min. Afterwards, different peptide concentrations were added, and PI uptake was rapidly measured every 10 min over a 1 h period using a Tecan Spark® microplate reader (λex=515 nm, λem=620 nm).

E. coli (O157:H7) = format: cell-based, Escherichia coli
Procedure: (§2) The MIC of arginine-based peptides was assessed using the microbroth dilution approach. Our in vitro screening included a panel of Gram-negative bacteria, Escherichia coli (ATCC 25922 and enterohaemorrhagic O157:H7) and Pseudomonas aeruginosa (PA01 and the drug-resistant strain NCTC 13437), and Gram-positive bacteria (Staphylococcus aureus ATCC 12600). Five-millilitre overnight cultures in Lysogeny broth, prepared from single isolated colonies, were diluted to 5×10^6 c.f.u. ml^−1 mid-log phase in Mueller–Hinton (MH) broth. Next, peptide concentrations (0 to 1 mM) were serially diluted twofold in 96-well plates and incubated overnight at 37 °C with the tested bacterial strains. In each case, the MIC was determined as the lowest peptide concentration at which no detectable bacterial growth was observed, employing an absorbance-based assay using a Tecan Spark® multimode plate reader. Subsequently, 10 µl aliquots from each peptide dilution were transferred to MH agar (1.5%) plates to determine the minimum bactericidal concentration (MBC) which was assessed by establishing at which concentration no visible growth of bacteria (assessed via colony formation) on the plate was observed.

[1] = Stability in human serum by LC-MS; format: in vitro ADME; conditions: human serum (20% and 50%), 24 h, 37 °C; read-out LC-MS (ESI)
Procedure: (§3) The antimicrobial activity and structural stability of arginine-rich peptides were evaluated in the presence of human serum (20% and 50 %) and 5 µM Sequencing Grade Modified Trypsin (SGMT, Promega). Briefly, fresh human blood was collected in EDTA tubes and allowed to clot at room temperature for 1 h. Serum was then collected following centrifugation at 2,000 r.p.m. for 10 min at 4 °C. Peptides were incubated with 20%, 50% human serum and 5 µM SGMT in 50 mM Tris-HCl buffer (1 mM CaCl₂, pH 7.6) for 24 h at 37 °C. After the incubation period, the solutions were further incubated with E. coli (ATCC 25922 and O157:H7), P. aeruginosa (PA01, NCTC13437) and S. aureus (ATCC12600), and the MIC was assessed as described in the ‘Antibacterial assessment’ section. Additionally, the samples were analysed using electrospray ionization MS to monitor structural changes based on the molecular weight of the peptides.

E. coli = assay: Live/dead SYTO 9/PI fluorescence imaging; format: cell-based, Escherichia coli; conditions: mid-log phase E. coli, 2× MIC; red = damaged membranes
S. aureus ATCC 12600 = assay: Membrane integrity, PI uptake; format: cell-based, Staphylococcus aureus; conditions: S. aureus ATCC 12600, 5 µg ml−1 PI, 1 h
Procedure: as §1

S. aureus = assay: Intracellular ROS, DCFH-DA; format: cell-based, Staphylococcus aureus; conditions: peptides at MIC, 1/2× MIC, 1/4× MIC, 4 h, 37 °C
Procedure: Total reactive oxygen species (ROS) was measured using an oxidation-sensitive fluorescent dye, 2′,7′-dichlorodihydrofluorescein diacetate (DCFH-DA). For this assay, E. coli and S. aureus cultures were adjusted to an OD600 of 0.3 in MH broth and exposed to peptides at MIC, 1/2× MIC and 1/4× MIC, or to positive control (5 mM H2O2) for 4 h at 37 °C. Cells were centrifuged at 4,000 r.p.m. for 10 min at 4 °C and resuspended in PBS containing 10 µM DCFH-DA. The suspension was incubated under the same conditions for 30 min. Finally, cells were washed twice with PBS, and 150 µl aliquots were transferred to 96-well plates. Oxidized DCF products were detected using a Tecan Spark® microplate reader with excitation at 485 nm and emission at 530 nm. Additionally, 10 µl of E. coli cells incubated with D-R4F4 at MIC, 1/2×MIC and 1/4×MIC was collected for imaging using an All-in-One Fluorescence Microscope (Keyence, Japan).

E. coli (25922) = format: cell-based, Escherichia coli
Procedure: as §2, §3

P. aeruginosa (PA01) = format: cell-based, Pseudomonas aeruginosa; conditions: P. aeruginosa PA01
Procedure: as §2

[2] = system: P. aeruginosa (NCTC13437); format: cell-based, Pseudomonas aeruginosa; conditions: P. aeruginosa NCTC13437 (drug-resistant); 10 µl aliquots plated on MH agar, no visible colonies
Procedure: as §2

[3] = system: P. aeruginosa (PAO1) biofilms; assay: Disruption of pre-established biofilms, resazurin; format: cell-based, Pseudomonas aeruginosa; conditions: 48 h P. aeruginosa biofilm, peptide at 2× MIC, 18 h, 37 °C
Procedure: To establish mature P. aeruginosa (PAO1) biofilms, an overnight culture was diluted to an OD600 of 0.01 in 120 µl of M63 medium (supplemented with 1 mM MgSO₄ and 23 µM L-arginine) and incubated in flat-bottom 96-well plates at 37 °C for 48 h. Afterwards, individual wells containing biofilm were rinsed three times with PBS, and 150 µl MH broth was added with either 0.5× and 2× MIC peptides. 100 µg mL^−1 resazurin was added to measure the biofilm metabolic activity for 18 h at 37 °C using a Tecan Spark® microplate reader (λex=520 nm/λem=590 nm). c.f.u. counts were established by plating aliquots of a dilution series onto MH agar followed by overnight incubation at 37 °C. Residual biofilm biomass was subsequently quantified using 0.1% CV staining.
Three-dimensional images of biofilm communities, with and without peptide exposure, were captured using an All-in-One Fluorescence Microscope (Keyence, Japan). Pre-established biofilms in a 96-well plate were incubated with 2× MIC peptides for 3 h at 37 °C. Dual staining was performed with 5 µl of SYTO 9/PI for 30 min. Biofilm thickness was assessed through 2.0 µm optical cross-sections with 50 µm pinholes.

[4] = 10 µl aliquots plated on MH agar, no visible colonies
[5] = MH broth, 5×10^6 cells, 24 h, 37 °C, absorbance 600 nm, triplicate

Compound: N=C(N)NCCC[C@@H]1NC(=O)[C@H](CCCNC(=N)N)NC(=O)[C@H](CCCNC(=N)N)NC(=O)[C@H](Cc2ccccc2)NC(=O)[C@H](Cc2ccccc2)NC(=O)[C@H](Cc2ccccc2)NC(=O)[C@H](Cc2ccccc2)NC(=O)[C@H](CCCNC(=N)N)NC1=O [CP-R4F4] (cyclo(RRRRFFFF))
- PI uptake, membrane integrity (E. coli ATCC 25922): membrane-disruptive activity
- MBC (E. coli (O157:H7); [4]): 62.5 µM (≈ 75.8 µg/mL)
- MIC (E. coli (O157:H7); [5]): 31.25 µM (≈ 37.9 µg/mL)
- Stability with serum proteases (LC chromatogram and mass spectrum) [1]: appeared at the same retention time in both the absence and presence of proteases
- Membrane damage, live/dead SYTO 9/PI staining (E. coli): high presence of red-stained cells indicative of damaged membranes
- PI uptake, membrane integrity (S. aureus ATCC 12600): membrane-disruptive activity
- Intracellular ROS levels (S. aureus): highest modulation of ROS levels
- MIC, Control (E. coli (25922); control without serum or trypsin): 31.25 µM (≈ 37.9 µg/mL)
- MIC, Trypsin (E. coli (25922); peptide incubated with 5 µM SGMT trypsin in 50 mM Tris-HCl, 1 mM CaCl2, pH 7.6, 24 h at 37 °C before MIC): 31.25 µM (≈ 37.9 µg/mL)
- MIC, 20% human serum (E. coli (25922); peptide incubated with 20% human serum 24 h at 37 °C before MIC): 31.25 µM (≈ 37.9 µg/mL)
- MIC, 50% human serum (E. coli (25922); peptide incubated with 50% human serum 24 h at 37 °C before MIC): 125 µM (≈ 152 µg/mL)
- MBC (P. aeruginosa (PA01); [4]): 31.2 µM (≈ 37.9 µg/mL)
- MIC (P. aeruginosa (PA01); [5]): 31.2 µM (≈ 37.9 µg/mL)
- MBC [2]: 250 µM (≈ 303 µg/mL)
- Disruption of mature biofilm (resazurin metabolic activity) [3]: significantly disrupted

Reference: publication PMC12873548, “D-amino acid substitution and cyclization enhance the stability and antimicrobial activity of arginine-rich peptides” (Microbiology, 2026)
